Patent publication US11339147B2, “Lactam compound as FXR receptor agonist” (CSPC ZHONGQI PHARMACEUTICAL TECHNOLOGY (SHIJIAZHUANG) CO., …, priority 2017, dated 2022)
Where two headings read alike, the source gives them in different places.

Target: T1, glutathione-S-transferase-labeled FXR human protein (Homo sapiens, UniProt Q96RI1)
T1 construct: purchased Invitrogen
T1 sequence (Q96RI1 1-486): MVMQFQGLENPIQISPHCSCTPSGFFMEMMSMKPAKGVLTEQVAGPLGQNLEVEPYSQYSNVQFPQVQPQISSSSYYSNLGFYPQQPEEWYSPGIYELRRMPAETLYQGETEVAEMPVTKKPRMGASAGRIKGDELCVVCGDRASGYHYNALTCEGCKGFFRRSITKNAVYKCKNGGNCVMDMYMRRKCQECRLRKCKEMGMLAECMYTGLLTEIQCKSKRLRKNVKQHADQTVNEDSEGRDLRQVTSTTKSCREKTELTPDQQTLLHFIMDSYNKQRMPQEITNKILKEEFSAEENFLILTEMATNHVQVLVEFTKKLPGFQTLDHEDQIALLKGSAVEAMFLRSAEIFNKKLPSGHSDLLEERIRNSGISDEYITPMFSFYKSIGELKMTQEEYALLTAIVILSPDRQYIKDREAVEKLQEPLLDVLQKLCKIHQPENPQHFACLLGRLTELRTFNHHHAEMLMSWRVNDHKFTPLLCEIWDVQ
Assay: FXR biochemical experiment (alphascreen, coactivator recruitment)
Conditions: for EC50: alphascreen, activation of FXR binding reaction with steroid receptor coactivator, read-out: FXR enzyme activity EC50; for Emax: read-out: FXR enzyme activity Efficacy (activation efficacy percent)
Method: FXR Biochemical Experiment
To test the effect of the compound on the activation of the FXR binding reaction by a Homogenous Proximity Luminescent Amplified Assay (alphascreen).
1. Protein: glutathione-S-transferase-labeled FXR human protein (Invitrogen)
2. Coactivator: biotin-labeled steroid receptor coactivator (Anaspec)
3. Detection reagent: Homogenous Proximity Luminescent Amplified Assay (alphascreen) detection kit (PerkinElmer)
1. Dilution of compounds: The test compound was prepared as a 40 μM DMSO solution, which was then diluted 3-fold to 10 concentration points. The reference compound was prepared as a 400 μM DMSO solution, and then was 1.5-fold diluted to 10 concentration points. The diluted DMSO solution was added to the micro-wells of a 384-well plate at a volume of 150 nl per well.
2. Glutathione-S-transferase-labeled FXR human protein and biotin-labeled steroid receptor coactivator were prepared to a mixed solution at a concentration of 0.4 nM and 30 nM, respectively. The mixed solution was added to the micro-wells of the 384-well plate at a volume of 15 μL per well, and incubated for 1 hour at room temperature.
3. […] The experiment process was protected from light. It was incubated for 1 hour at room temperature.
4. […] The experiment process was protected from light. It was incubated for 1 hour at room temperature.
5. EC50 test: Envision was used to excite at 680 nm and the […] signal at 520-620 nm was read.
6. Data analysis: Data analysis was conducted using Prism 5.0 to calculate the EC50 value of the activation effect of the compound.

[1] = highest signal relative to reference compound chenodeoxycholic acid (Examples 1-30)
[2] = highest signal relative to reference compound obeticholic acid (Examples 31-47)

Structure (SMILES): O=C(O)c1cccc(CN2C(=O)C3(CCCC3)c3cc(OCc4c(-c5c(Cl)cccc5Cl)noc4C4CC4)ccc32)c1 [Compound 11]
- EC50: 580 nM
- Emax [1]: 82%

Structure (SMILES): O=C(O)CCCN1C(=O)C2(CC2)c2cc(OCc3c(-c4c(Cl)cccc4Cl)noc3C3CC3)ccc21 [Compound 16]
- EC50: 3390 nM
- Emax [1]: 151%

Structure (SMILES): O=C(O)c1cccc(CN2C(=O)C3(CC3)c3cc(OCc4c(-c5c(Cl)cccc5Cl)noc4C4CC4)ccc32)c1 [Compound 1]
- EC50: 200 nM
- Emax [1]: 156%

Structure (SMILES): O=C(O)c1cccc(N2C(=O)CCc3cc(OCc4c(-c5c(Cl)cccc5Cl)noc4C4CC4)ccc32)c1 [Compound 41]
- EC50: 444 nM
- Emax [2]: 95%

Structure (SMILES): O=C(O)c1ccccc1N1C(=O)C2(CC2)c2cc(OCc3c(-c4c(Cl)cccc4Cl)noc3C3CC3)ccc21 [Compound 26]
- EC50: 6430 nM
- Emax [1]: 21%

Structure (SMILES): CC1(C)C(=O)N(c2ccc(C(=O)O)cc2)c2ccc(OCc3c(-c4c(Cl)cccc4Cl)noc3C3CC3)cc21 [Compound 13]
- EC50: 90 nM
- Emax [1]: 163%

Structure (SMILES): O=C(O)c1ccc(CN2C(=O)C3(CC3)c3cc(OCc4c(-c5c(Cl)cccc5Cl)noc4C4CC4)ccc32)cc1 [Compound 2]
- EC50: 290 nM
- Emax [1]: 155%

Structure (SMILES): O=C(O)c1ccc(N2C(=O)CCc3cc(OCc4c(-c5c(Cl)cccc5Cl)noc4C4CC4)ccc32)c(Cl)c1 [Compound 36]
- EC50: 69 nM
- Emax [2]: 135%

Structure (SMILES): O=C(O)c1ccc(N2C(=O)C3(CC3)c3cc(OCc4c(-c5c(Cl)cccc5Cl)noc4C4CC4)ccc32)nc1 [Compound 3]
- EC50: 180 nM
- Emax [1]: 165%

Structure (SMILES): O=C(O)c1ccc(CN2C(=O)C3(CC3)c3cc(OCc4c(-c5c(Cl)cccc5Cl)noc4C4CC4)ccc32)nc1 [Compound 22]
- EC50: 660 nM
- Emax [1]: 200%

Structure (SMILES): O=C(O)c1ccc(N2C(=O)C3(CC3)c3cc(OCc4c(-c5c(Cl)cccc5Cl)noc4C4CC4)ccc32)cc1F [Compound 10]
- EC50: 1030 nM
- Emax [1]: 312%

Structure (SMILES): O=C(O)c1cncc(N2C(=O)C3(CC3)c3cc(OCc4c(-c5c(Cl)cccc5Cl)noc4C4CC4)ccc32)c1 [Compound 24]
- EC50: 610 nM
- Emax [1]: 124%

Structure (SMILES): O=C(O)C12CC(CN3C(=O)C4(CC4)c4cc(OCc5c(-c6c(Cl)cccc6Cl)noc5C5CC5)ccc43)(C1)C2 [Compound 19]
- EC50: 2560 nM
- Emax [1]: 95%

Structure (SMILES): O=C(O)c1ccc(N2C(=O)C3(CC3)c3cc(OCc4c(-c5c(Cl)cncc5Cl)noc4C4CC4)ccc32)cc1 [Compound 29]
- EC50: 560 nM
- Emax [1]: 211%

Structure (SMILES): O=C(O)c1ccc(N2C(=O)C3(CC3)c3cc(OCc4c(-c5c(Cl)cccc5Cl)noc4C4CC4)ccc32)s1 [Compound 5]
- EC50: 150 nM
- Emax [1]: 242%

Structure (SMILES): Cc1sc(N2C(=O)C3(CC3)c3cc(OCc4c(-c5c(Cl)cccc5Cl)noc4C4CC4)ccc32)nc1C(=O)O [Compound 8]
- EC50: 820 nM
- Emax [1]: 35%

Structure (SMILES): O=C(O)C1CC=C(N2C(=O)C3(CC3)c3cc(OCc4c(-c5c(Cl)cccc5Cl)noc4C4CC4)ccc32)CC1 (stereo not shown) [Compound 18]
- EC50: 660 nM
- Emax [1]: 142%

Structure (SMILES): O=C(O)c1cccc(N2C(=O)C3(CC3)c3cc(OCc4c(-c5c(Cl)cccc5Cl)noc4C4CC4)ccc32)c1 [Compound 7]
- EC50: 240 nM
- Emax [1]: 144%

Structure (SMILES): O=C(O)c1cc(N2C(=O)CCc3cc(OCc4c(-c5c(Cl)cccc5Cl)noc4C4CC4)ccc32)ccc1F [Compound 42]
- EC50: 189 nM
- Emax [2]: 137%

Structure (SMILES): COc1cc(C(=O)O)ccc1N1C(=O)CCc2cc(OCc3c(-c4c(Cl)cccc4Cl)noc3C3CC3)ccc21 [Compound 44]
- EC50: 58 nM
- Emax [2]: 117%

Structure (SMILES): Cc1cc(C(=O)O)cnc1N1C(=O)CCc2cc(OCc3c(-c4c(Cl)cccc4Cl)noc3C3CC3)ccc21 [Compound 43]
- EC50: 20 nM
- Emax [2]: 153%

Structure (SMILES): N#Cc1cc(C(=O)O)ccc1N1C(=O)CCc2cc(OCc3c(-c4c(Cl)cccc4Cl)noc3C3CC3)ccc21 [Compound 39]
- EC50: 35 nM
- Emax [2]: 140%

Structure (SMILES): O=C(O)c1ccc(N2C(=O)C3(CC3)c3ccc(OCc4c(-c5c(Cl)cccc5Cl)noc4C4CC4)cc32)cc1 [Compound 12]
- EC50: 1760 nM
- Emax [1]: 33%

Structure (SMILES): O=C(O)C1CCC(CN2C(=O)C3(CC3)c3cc(OCc4c(-c5c(Cl)cccc5Cl)noc4C4CC4)ccc32)CC1 (single isomer, unassigned) [Compound 21]
- EC50: 950 nM
- FXR enzyme activity Efficacy (activation efficacy percent) [1]: 96%

Structure (SMILES): O=C(O)CCN1C(=O)C2(CC2)c2cc(OCc3c(-c4c(Cl)cccc4Cl)noc3C3CC3)ccc21 [Compound 17]
- EC50: 1880 nM
- Emax [1]: 169%

Structure (SMILES): O=C(O)c1cnc(N2C(=O)CCc3cc(OCc4c(-c5c(Cl)cccc5Cl)noc4C4CC4)ccc32)c(F)c1 [Compound 35]
- EC50: 9 nM
- Emax [2]: 161%

Structure (SMILES): O=C(O)c1ccc(N2C(=O)CCc3cc(OCc4c(-c5c(Cl)cccc5Cl)noc4C4CC4)ccc32)s1 [Compound 46]
- EC50: 83 nM
- Emax [2]: 126%

Structure (SMILES): O=C(O)c1ccc(N2C(=O)CCc3cc(OCc4c(-c5c(Cl)cccc5Cl)noc4C4CC4)ccc32)cc1 [Compound 33]
- EC50: 143 nM
- Emax [2]: 127%

Structure (SMILES): O=C(O)c1ccc(N2C(=O)C3(CC3)c3cc(OCc4c(-c5ccccc5OC(F)(F)F)noc4C4CC4)ccc32)cc1 [Compound 28]
- EC50: 650 nM
- Emax [1]: 186%

Structure (SMILES): O=C(O)c1ccc(N2C(=O)C3(CC3)c3cc(OCc4c(-c5c(Cl)cccc5Cl)noc4C4CC4)ccc32)cc1 [Compound 6]
- EC50: 100 nM
- Emax [1]: 169%

Structure (SMILES): O=C(O)C1CCC(CN2C(=O)C3(CC3)c3cc(OCc4c(-c5c(Cl)cccc5Cl)noc4C4CC4)ccc32)CC1 (single isomer, unassigned) [Compound 20]
- EC50: 830 nM
- FXR enzyme activity Efficacy (activation efficacy percent) [1]: 169%

Structure (SMILES): O=C(O)c1csc(N2C(=O)CCc3cc(OCc4c(-c5c(Cl)cccc5Cl)noc4C4CC4)ccc32)c1 [Compound 45]
- EC50: 108 nM
- Emax [2]: 117%

Structure (SMILES): O=C(O)c1ccc(N2C(=O)CCc3cc(OCc4c(-c5c(Cl)cccc5Cl)noc4C4CC4)ccc32)c(F)c1 [Compound 34]
- EC50: 127 nM
- Emax [2]: 140%

Structure (SMILES): Cn1cc(C(=O)O)c2ccc(N3C(=O)C4(CC4)c4cc(OCc5c(-c6c(Cl)cccc6Cl)noc5C5CC5)ccc43)cc21 [Compound 4]
- EC50: 200 nM
- Emax [1]: 256%

Structure (SMILES): O=C(O)c1ccc(N2C(=O)C3(CC3)c3cc(OCc4c(-c5c(Cl)cccc5Cl)noc4C4CC4)cnc32)cc1 [Compound 30]
- EC50: 1530 nM
- Emax [1]: 228%

Structure (SMILES): O=C(O)c1ccc(N2C(=O)CCc3cc(OCc4c(-c5c(Cl)cccc5Cl)noc4C4CC4)ccc32)cc1O [Compound 47]
- EC50: 20 nM
- Emax [2]: 153%

Structure (SMILES): O=C(O)c1csc(N2C(=O)C3(CC3)c3cc(OCc4c(-c5c(Cl)cccc5Cl)noc4C4CC4)ccc32)c1 [Compound 23]
- EC50: 310 nM
- Emax [1]: 120%

Structure (SMILES): O=C(O)c1cc(F)cc(N2C(=O)C3(CC3)c3cc(OCc4c(-c5c(Cl)cccc5Cl)noc4C4CC4)ccc32)c1 [Compound 27]
- EC50: 410 nM
- Emax [1]: 218%

Structure (SMILES): COc1cc(N2C(=O)C3(CC3)c3cc(OCc4c(-c5c(Cl)cccc5Cl)noc4C4CC4)ccc32)ccc1C(=O)O [Compound 9]
- EC50: 1560 nM
- Emax [1]: 229%

Structure (SMILES): O=C(O)c1ccc(N2C(=O)C3(CC3)c3cc(OCc4c(-c5c(Cl)cccc5Cl)noc4C4CC4)ccc32)cc1Cl [Compound 25]
- EC50: 410 nM
- Emax [1]: 130%

Structure (SMILES): O=C(O)c1cnc(N2C(=O)CCc3cc(OCc4c(-c5c(Cl)cccc5Cl)noc4C4CC4)ccc32)s1 [Compound 38]
- EC50: 140 nM
- Emax [2]: 118%
